Laboratory results published in patent US8975417B2, “Pyrazolopyrrolidine derivatives and their use in the treatment of disease” (Novartis AG, priority 2013, dated 2015).

Columns and labels:
His-Brd3(20-477) = His-Brd3(20-477) (Homo sapiens (Human), UniProt Q15059); assay: TR-FRET in-vitro binding assay for BRD3; details: biochemical
Summary of the method: (§1)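 Eight-point dilution series tested against in-house His-BRD2(60-472), BRD3(20-477) or BRD4(44-477) (45 nM in dispensed solution) binding acetyl-histone H4 (AcK5,8,12,16; 60 nM in dispensed solution). Incubation 35 min at 30 °C, pH 7.5 HEPES buffer; detection by TR-FRET using Eu-anti-His6 and streptavidin-allophycocyanin.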

K-562 cells = assay: Cell growth inhibition assay (CellTiter-Glo), K-562; format: cell-based, human; details: Homo sapiens, K562, read-out: K-562 TGI
Summary of the method: (§2)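 Luminescent ATP quantification served as the viability read-out following incubation at 37° C. under 5% CO2. A day-0 reference plate allowed scaling from −100% (medium) to 100% (0.1% DMSO vehicle), with IC50 and TGI fitted by a four-parameter model.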

THP-1 cells = assay: Cell growth inhibition assay (CellTiter-Glo), THP-1; format: cell-based; details: Homo sapiens, read-out: THP-1 TGI
Summary of the method: as §2

MV-4-11 cells = assay: Cell growth inhibition assay (CellTiter-Glo), MV-4-11; format: cell-based; details: Homo sapiens, MV4-11, read-out: MV-4-11 TGI
Summary of the method: as §2

His-Brd4(44-477) = His-Brd4(44-477) (Homo sapiens (Human), UniProt O60885); assay: TR-FRET in-vitro binding assay for BRD4; details: biochemical
Summary of the method: as §1

[1] = molecular target: nuclear BRD4-NUT foci in HCC2494 NUT midline carcinoma cells (Homo sapiens (Human), UniProt O60885+Q86Y26); assay: Nut-foci formation assay; format: cell-based; details: 24 hours, read-out: HCS Brd4-NUT IC50
Description: HCC2494 NUT midline carcinoma cells (expressing BRD4-NUT-fusion) were obtained from the University of Texas Southwestern and cultured in RPMI-1640 medium containing 10% Foetal Calf Serum at 37° C. in a humidified 5% CO2 incubator.
Compound-mediated inhibition of BRD4 activity was monitored by quantification of the number and intensity of nuclear BRD4-NUT foci using automated immunofluorescence microscopy. Briefly, 5000 cells in 20 μL fresh medium were seeded into Poly-D-Lysine-precoated 384-well plates and incubated overnight at 37° C. and 5% CO2, followed by addition of 5 μl medium containing compound dilutions at 5-fold their final intended concentration. Dose-response effects were assessed by 3-fold serial dilutions of the test compound, starting at 10 μM. Following incubation of the cells for 24 hours at 37° C. and 5% CO2, the cells were fixed by incubation with 3.7% formaldehyde for 10 min, followed by immunofluorescence staining using rabbit anti-NUT (Cell Signaling Technologies, Cat#3625) as primary, and AlexaFluor488-labeled goat anti-rabbit (Invitrogen, Cat#A11008) as secondary antibody (latter complemented with 1 μg/mL Hoechst33342 as DNA dye). Assay plates were imaged using the appropriate filter sets on the Cellomics VTi automated fluorescence microscopy platform (ThermoFisher Scientific) and the population average of the number of NUT-foci per nucleus is quantified using the Cellomics Spot Detection BioApplication image analysis algorithm (ThermoFisher Scientific). The effect of a particular test compound concentration on NUT-foci number and intensity is expressed as percentage of the value obtained for cells treated with vehicle only (DMSO, 0.1% final concentration), which was set as 100. Compound concentrations leading to half-maximal (IC50) inhibition of the aforementioned readout parameters were determined using standard four parameter curve fitting.

His-Brd2(60-472) = His-Brd2(60-472) (Homo sapiens (Human), UniProt P25440); assay: TR-FRET in-vitro binding assay for BRD2; details: biochemical
Summary of the method: as §1

[2] = molecular target: His-CREBBP (1081-1197) bromodomain (Homo sapiens (Human), UniProt Q92793); assay: AlphaScreen in-vitro binding assay for CREBBP; details: biochemical
Summary of the method: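 Ni-chelate acceptor and streptavidin donor beads (45 µg/mL each, in 50 mM HEPES pH 7.5, 150 mM NaCl, 0.02% BSA) were then added for 60 min at room temperature. IC50 came from 8-point non-linear regression.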

Chain of His-Brd2(60-472) (P25440 60-472): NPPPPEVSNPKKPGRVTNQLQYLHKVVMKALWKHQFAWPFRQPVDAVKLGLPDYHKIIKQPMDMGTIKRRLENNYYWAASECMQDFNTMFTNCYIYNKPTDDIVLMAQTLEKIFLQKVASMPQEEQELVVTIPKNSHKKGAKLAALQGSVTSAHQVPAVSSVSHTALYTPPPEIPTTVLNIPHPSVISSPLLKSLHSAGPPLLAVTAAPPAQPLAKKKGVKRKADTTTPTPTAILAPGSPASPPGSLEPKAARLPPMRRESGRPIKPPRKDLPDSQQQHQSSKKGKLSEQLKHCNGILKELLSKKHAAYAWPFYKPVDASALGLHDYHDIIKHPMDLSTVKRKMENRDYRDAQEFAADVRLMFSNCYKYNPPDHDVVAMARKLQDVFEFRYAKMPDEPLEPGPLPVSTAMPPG
Chain of His-CREBBP (1081-1197) bromodomain (Q92793 1081-1197): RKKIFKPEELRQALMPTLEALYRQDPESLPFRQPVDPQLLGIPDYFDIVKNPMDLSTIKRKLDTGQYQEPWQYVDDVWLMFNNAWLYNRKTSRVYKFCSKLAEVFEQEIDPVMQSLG
Chain of His-Brd3(20-477) (Q15059 20-477): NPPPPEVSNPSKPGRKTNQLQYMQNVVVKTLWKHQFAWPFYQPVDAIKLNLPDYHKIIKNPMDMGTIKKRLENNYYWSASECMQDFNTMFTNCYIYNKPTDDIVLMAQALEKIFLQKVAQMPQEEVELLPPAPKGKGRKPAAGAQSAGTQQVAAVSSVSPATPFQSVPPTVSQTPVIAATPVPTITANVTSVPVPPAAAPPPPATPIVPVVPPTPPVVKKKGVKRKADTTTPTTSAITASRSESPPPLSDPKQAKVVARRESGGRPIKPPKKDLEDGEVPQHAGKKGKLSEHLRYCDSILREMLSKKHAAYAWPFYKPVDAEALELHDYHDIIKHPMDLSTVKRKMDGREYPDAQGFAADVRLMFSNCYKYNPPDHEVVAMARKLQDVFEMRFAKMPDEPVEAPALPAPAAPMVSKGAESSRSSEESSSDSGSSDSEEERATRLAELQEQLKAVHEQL

| Compound | IC50 (His-Brd3(20-477)) [µM] | IC (total growth inhibition) (K-562 cells) [µM] | IC (total growth inhibition) (THP-1 cells) [µM] | IC (total growth inhibition) (MV-4-11 cells) [µM] | IC50 (His-Brd4(44-477)) [µM] | IC50 [1] [µM] | IC50 (His-Brd2(60-472)) [µM] | IC50 [2] [µM] |
| --- | --- | --- | --- | --- | --- | --- | --- | --- |
| CCc1nn(C(=O)N(C)C)c2c1C(c1ccc(Cl)cc1)N(c1cc(C)c(=O)n(C)c1)C2=O (stereo not shown) [Example 147, 4-(4-chlorophenyl)-5-(1,5-dimethyl-6-oxo-1,6-dihydropyridin-3-yl)-3-ethyl-N,N-dimethyl-6-oxo-5,6-dihydropyrrolo[3,4-c]pyrazole-1(4H)-carboxamide] | 0.12 | > 10 | 0.365 | 0.1 | 0.13 | 0.0731 | 0.14 |  |
| Cc1cc(N2C(=O)c3n[nH]cc3C2c2ccc(Cl)cc2)cn(C)c1=O (stereo not shown) [Example 26, 4-(4-chlorophenyl)-5-(1,5-dimethyl-6-oxo-1,6-dihydropyridin-3-yl)-4,5-dihydropyrrolo[3,4-c]pyrazol-6(2H)-one] |  | > 10 | 0.772 | 0.317 | 0.15 | 0.698 | 0.21 |  |
| CCc1nn(CCOC)c2c1C(c1ccc(Cl)cc1)N(c1cc(C)c(=O)n(C)c1)C2=O (stereo not shown) [Example 86, 4-(4-chlorophenyl)-5-(1,5-dimethyl-6-oxo-1,6-dihydropyridin-3-yl)-3-ethyl-1-(2-methoxyethyl)-4,5-dihydropyrrolo[3,4-c]pyrazol-6(1H)-one] |  | > 10 | 0.123 | 0.0548 |  | 0.0384 |  |  |
| Cc1nn(C2CNC2)c2c1C(c1ccc(Cl)cc1)N(c1cc(C)c(=O)n(C)c1)C2=O (stereo not shown) [Example 138, 1-(azetidin-3-yl)-4-(4-chlorophenyl)-5-(1,5-dimethyl-6-oxo-1,6-dihydropyridin-3-yl)-3-methyl-4,5-dihydropyrrolo[3,4-c]pyrazol-6(1H)-one] | 0.24 | > 10 | 1.51 | 0.353 | 0.29 | 0.845 |  |  |
| Cc1nn(C2CC2)c2c1C(c1cccc(OC(F)(F)F)c1)N(c1cc(C)c(=O)n(C)c1)C2=O (stereo not shown) [Example 91, 1-cyclopropyl-5-(1,5-dimethyl-6-oxo-1,6-dihydropyridin-3-yl)-3-methyl-4-(3-(trifluoromethoxy)phenyl)-4,5-dihydropyrrolo[3,4-c]pyrazol-6(1H)-one] |  | > 10 | 1.44 | 0.978 |  | 0.736 |  |  |
| COc1ncc(-n2nc3c(c2C(F)(F)F)C(c2ccc(Cl)cc2)N(c2cc(Cl)c(=O)n(C)c2)C3=O)c(OC)n1 (stereo not shown) [Example 47, 5-(5-chloro-1-methyl-6-oxo-1,6-dihydropyridin-3-yl)-4-(4-chlorophenyl)-2-(2,4-dimethoxypyrimidin-5-yl)-3-(trifluoromethyl)-4,5-dihydropyrrolo[3,4-c]pyrazol-6(2H)-one] | 0.28 | > 10 | 0.755 | 0.158 | 0.27 |  | 0.21 | 1.5 |
| Cn1cc(N2C(=O)c3c(cnn3C3CC3)C2c2ccc(Cl)cc2)cc(Cl)c1=O (stereo not shown) [Example 35, 5-(5-chloro-1-methyl-6-oxo-1,6-dihydropyridin-3-yl)-4-(4-chlorophenyl)-1-cyclopropyl-4,5-dihydropyrrolo[3,4-c]pyrazol-6(1H)-one] | 0.16 | > 10 | 0.427 | 0.23 | 0.15 |  | 0.14 | 7.4 |
| CCc1nn(C2CC2)c2c1C(c1ccc(Cl)cc1)N(c1cc(C)c(=O)n(C)c1)C2=O (stereo not shown) [Example 69] | 0.028 | > 10 | 0.0983 | 0.0466 | 0.027 |  | 0.026 | 4.1 |
| Cc1cc(N2C(=O)c3c(c(CO)nn3C3CC3)[C@H]2c2ccc(Cl)cc2)cn2c(C)nnc12 [Example 166, (R)-4-(4-chlorophenol)-1-cyclopropyl-5-(3,8-dimethyl-[1,2,4]triazolo[4,3-a]pyridin-6-yl)-3-(hydroxymethyl)-4,5-dihydropyrrolo[3,4-c]pyrazol-6(1H)-one] | 0.013 | > 10 | 0.0539 | 0.0262 | < 0.011 |  | 0.016 | 14 |
| Cc1c2c(nn1C(C)C)C(=O)N(c1cc(Cl)c(=O)n(C)c1)C2c1ccc(Cl)cc1 (stereo not shown) [Example 65, 5-(5-chloro-1-methyl-6-oxo-1,6-dihydropyridin-3-yl)-4-(4-chlorophenyl)-2-isopropyl-3-methyl-4,5-dihydropyrrolo[3,4-c]pyrazol-6(2H)-one] | 0.13 | > 10 | 0.217 | 0.109 | 0.2 |  | 0.24 | 0.42 |
| Cc1nn(C2CC2)c2c1[C@H](c1ccc(Cl)cc1)N(c1cc(C)c3nnc(C)n3n1)C2=O [Example 123, (S)-4-(4-chlorophenyl)-1-cyclopropyl-5-(3,8-dimethyl-[1,2,4]triazolo[4,3-b]pyridazin-6-yl)-3-methyl-4,5-dihydropyrrolo[3,4-c]pyrazol-6(1H)-one] |  | > 10 | > 10 | 5.81 | 14 | 8.91 |  |  |
| Cc1[nH]nc2c1C(c1ccc(Cl)cc1)N(c1cc(C)c(=O)n(C)c1)C2=O (stereo not shown) [Example 27, 4-(4-chlorophenyl)-5-(1,5-dimethyl-6-oxo-1,6-dihydropyridin-3-yl)-3-methyl-4,5-dihydropyrrolo[3,4-c]pyrazol-6(2H)-one] | 0.18 | > 10 | 0.363 | 0.158 | 0.095 |  | 0.31 | 3.8 |
| Cc1cc(N2C(=O)c3c(c(CO)nn3C3CC3)C2c2ccc(Cl)cc2)cn(C)c1=O (stereo not shown) [Example 133, 4-(4-chlorophenyl)-1-cyclopropyl-5-(1,5-dimethyl-6-oxo-1,6-dihydropyridin-3-yl)-3-(hydroxymethyl)-4,5-dihydropyrrolo[3,4-c]pyrazol-6(1H)-one] | 0.08 | > 10 | 0.327 | 0.102 | 0.079 | 0.0647 |  |  |
| COc1ncc(-n2nc3c(c2C(C)C)C(c2ccc(Cl)cc2)N(c2cc(C)c4onc(C)c4c2)C3=O)c(OC)n1 (stereo not shown) [Example 46, 4-(4-chlorophenyl)-2-(2,4-dimethoxypyrimidin-5-yl)-5-(3,7-dimethylbenzo[d]-isoxazol-5-yl)-3-isopropyl-4,5-dihydropyrrolo[3,4-c]pyrazol-6(2H)-one] | 0.1 | > 10 | 0.323 | 0.166 | 0.087 |  | 0.13 | 4.7 |
| Cc1cc(N2C(=O)c3c(cnn3C(C)C)C2c2ccc(Cl)cc2)cn(C)c1=O (stereo not shown) [Example 36, 4-(4-chlorophenyl)-5-(1,5-dimethyl-6-oxo-1,6-dihydropyridin-3-yl)-1-isopropyl-4,5-dihydropyrrolo[3,4-c]pyrazol-6(1H)-one] | 0.059 | > 10 | 0.191 | 0.0927 | 0.066 |  | 0.057 | 3.6 |
